Experimental data taken from ChEMBL document CHEMBL5113528 (J Med Chem, 2022).

Key:
[1] = biological target: T1, N-terminal Xaa-Pro-Lys N-methyltransferase 1 (Homo sapiens, UniProt Q9BV86); experiment: Inhibition of full length His-NTMT1 (1 to 222 residues) (unknown origin) expressed in Escherichia coli BL21 (DE3) assessed as SAH production by Mtase-glo luminescence assay
T1 sequence (Q9BV86 whole entry): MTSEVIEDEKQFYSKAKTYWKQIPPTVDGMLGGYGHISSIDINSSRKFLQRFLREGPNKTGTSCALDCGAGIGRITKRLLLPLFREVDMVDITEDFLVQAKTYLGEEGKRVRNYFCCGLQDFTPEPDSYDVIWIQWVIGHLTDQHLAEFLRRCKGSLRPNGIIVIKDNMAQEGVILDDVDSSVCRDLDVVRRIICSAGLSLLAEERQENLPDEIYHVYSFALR

[2] = biological target: T1, N-terminal Xaa-Pro-Lys N-methyltransferase 1; experiment: Inhibition of full length NTMT1 (1 to 222 residues) (unknown origin) expressed in Escherichia coli BL21 (DE3) using GPKRIA as substrate preincubated for 10 mins followed by substrate addition measured after 15 mins by microplate reader method
[3] = biological target: T1, N-terminal Xaa-Pro-Lys N-methyltransferase 1
Description: Binding affinity to NTMT1 (unknown origin) assessed as dissociation constant in presence of SAM by isothermal titration calorimetry analysis

[4] = biological target: T1, N-terminal Xaa-Pro-Lys N-methyltransferase 1; remark: listed apart in the source
Description: Binding affinity to NTMT1 (unknown origin)assessed as dissociation constant in absence of SAM by isothermal titration calorimetry analysis

Compound	IC50 [2] [nM]	other results
C/N=c1\nc(-c2ccccc2)n(-c2ccccc2)s1	–	IC50 [1]: 460 nM
CC(C)(NC(=O)O[C@@H]1CN2CCC1CC2)c1csc(-c2ccc(CCC(=O)O)cc2)n1	> 100000	–
Cc1nc(C(C)(C)NC(=O)O[C@@H]2CN3CCC2CC3)cs1	> 100000	–
CC(C)(NC(=O)O[C@@H]1CN2CCC1CC2)c1csc(-c2ccc(/C=C/C(=O)O)cc2)n1	> 100000	–
CC(C)(NC(=O)OC1CCCCC1)c1csc(-c2ccc(F)cc2)n1	> 100000	–
CC(C)(NC(=O)O[C@@H]1CN2CCC1CC2)c1csc(-c2ccc(Br)cc2)n1	1500	–
Cc1ccc(-c2nc(C(C)(C)NC(=O)O[C@@H]3CN4CCC3CC4)cs2)cc1	1700	–
CC(C)(NC(=O)O[C@@H]1CN2CCC1CC2)c1csc(-c2ccc(F)cc2)n1	–	Kd [3]: 32.5 nM; Kd [4]: 160 nM
CC(C)OC(=O)NC(C)(C)c1csc(-c2ccc(F)cc2)n1	> 100000	–
CC(C)(NC(=O)O[C@@H]1CN2CCC1CC2)c1csc(-c2ccccc2)n1	2700	–
